This passage reports IC50 results from patent US9850283B2, “Macrocyclic inhibitors of the PD-1/PD-L1 and CD80(B7-1)/PD-L1 protein/protein interactions” (BRISTOL-MYERS SQUIBB COMPANY, priority 2013, dated 2017).

Positions of bridges follow the written chain, without caps; N, C: chain ends. Non-standard residues stand in square brackets, D forms with d. Residues, ends and D or L forms follow the SMILES beside them. Trp(7-Me) = Cc1cccc2c(C[C@H](N)C(=O)O)c[nH]c12; Bta = N[C@@H](Cc1csc2ccccc12)C(=O)O; cisHyp = O=C(O)[C@@H]1C[C@H](O)CN1; Hyp = O=C(O)[C@@H]1C[C@@H](O)CN1; NMeNle = CCCC[C@H](NC)C(=O)O; NMeA = CN[C@@H](C)C(=O)O; Orn = NCCC[C@H](N)C(=O)O; Dab = NCC[C@H](N)C(=O)O; Dap = NC[C@H](N)C(=O)O

One experiment deals with T1, Human PD-L1/PD-1 (Homo sapiens, UniProt Q9NZQ7).
T1 construct: made in house; host or cells: HEK293T
Description: HTRF PD-1-Ig/PD-L1-His binding assay (human PD-L1). The settings on record: cluster symbol; read-out: HTRF IC50 cluster. Summed up:
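Soluble Fc-fused PD-1 and His-tagged PD-L1 (truncated before the transmembrane region) were combined in dPBS with 0.1% (w/v) BSA and 0.05% (v/v) Tween-20. Binding was read by HTRF using europium cryptate anti-Ig antibody (1 nM final) and APC anti-His antibody (20 nM final).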

Experiment [1] concerns the target T2, LK35.2-hPD-L1 cells / PE-labeled PD-1-Ig (Homo sapiens, UniProt Q9NZQ7).
T2 construct: expressed in transfected cells; host or cells: LK35.2 mouse B cell line
Description: LK35.2-hPD-L1 cell binding high-content screening assay. The settings on record: cluster symbol; cell line of CBA not given (LK35.2-hPD-L1 or 293T-hPD-L1); read-out: CBA IC50 cluster. In kind it is cell-based. Summed up:
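Mouse LK35.2 B cells stably overexpressing human PD-L1 were cultured overnight in RPMI with 10% FCS, then given compound and PE-labeled human PD-1-Ig (1 nM final) for 1 h at 37 °C. After three dPBS washes, bound fluorescence was quantified by high-content imaging.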

T2 sequence (Q9NZQ7 19-290): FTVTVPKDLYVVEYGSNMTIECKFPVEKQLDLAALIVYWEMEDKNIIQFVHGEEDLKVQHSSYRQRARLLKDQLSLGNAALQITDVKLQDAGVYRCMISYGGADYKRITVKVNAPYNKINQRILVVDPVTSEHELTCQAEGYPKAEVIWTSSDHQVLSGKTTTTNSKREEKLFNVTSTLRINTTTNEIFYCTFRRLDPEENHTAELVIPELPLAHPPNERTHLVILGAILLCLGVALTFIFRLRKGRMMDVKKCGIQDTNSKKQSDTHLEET
T1 sequence (Q9NZQ7 with tags, fused parts or gaps): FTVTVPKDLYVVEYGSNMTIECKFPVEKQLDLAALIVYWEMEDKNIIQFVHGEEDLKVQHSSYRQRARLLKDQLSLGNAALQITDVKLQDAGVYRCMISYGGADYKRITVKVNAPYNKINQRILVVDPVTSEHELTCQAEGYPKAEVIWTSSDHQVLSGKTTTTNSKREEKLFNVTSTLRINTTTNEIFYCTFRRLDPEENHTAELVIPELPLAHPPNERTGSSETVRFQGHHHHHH

What is called IC50 is the midpoint of a concentration-inhibition curve. On to `CCCC[C@H]1C(=O)N(C)[C@@H](CCCC)C(=O)N[C@@H](CCCNC(=N)N)C(=O)N[C@H](C(=O)NCC(=O)O)CSCC(=O)N[C@@H](Cc2ccc(O)cc2)C(=O)N(C)[C@@H](C)C(=O)N[C@@H](CC(N)=O)C(=O)N2CCC[C@H]2C(=O)N[C@@H](CN)C(=O)N[C@@H](CC(C)C)C(=O)N2C[C@@H](O)C[C@H]2C(=O)N[C@@H](Cc2c[nH]c3ccccc23)C(=O)N[C@@H](CO)C(=O)N[C@@H](Cc2csc3ccccc23)C(=O)N1C` [Example 1141] ({CH2CO}-Y[NMeA]NP[Dap]L[cisHyp]WS[Bta][NMeNle][NMeNle]RCG-OH; thioether N-14), for which the IC50 on Human PD-L1/PD-1 lay in the range of 0.385 to 6.74 nM; in experiment [1], 0.158 to 4.71 nM.
The matching figures for `CCCC[C@H]1C(=O)N(C)[C@@H](CCCC)C(=O)N[C@@H](CCCNC(=N)N)C(=O)N[C@H](C(=O)NCC(N)=O)CSCC(=O)N[C@@H](Cc2ccc(O)cc2)C(=O)N(C)[C@@H](C)C(=O)N[C@@H](CC(N)=O)C(=O)N2CCC[C@H]2C(=O)N[C@@H](C)C(=O)N[C@@H](CC(C)C)C(=O)N2C[C@@H](O)C[C@H]2C(=O)N[C@@H](Cc2c[nH]c3ccccc23)C(=O)N[C@@H](CO)C(=O)N[C@@H](Cc2c[nH]c3ccccc23)C(=O)N1C` [Example 1142] ({CH2CO}-Y[NMeA]NPAL[cisHyp]WSW[NMeNle][NMeNle]RCG-NH2; thioether N-14): 6.76 to 30.3 nM and 4.78 to 72.9 nM.
Regarding `CCCC[C@H]1C(=O)N(C)[C@@H](CCCC)C(=O)N[C@@H](CCCNC(=N)N)C(=O)N[C@H](C(=O)NCC(N)=O)CSCC(=O)N[C@@H](Cc2ccc(O)cc2)C(=O)N(C)[C@@H](C)C(=O)N[C@@H](CN)C(=O)N2CCC[C@H]2C(=O)N[C@@H](C)C(=O)N[C@@H](CC(C)C)C(=O)N2C[C@@H](O)C[C@H]2C(=O)N[C@@H](Cc2c[nH]c3ccccc23)C(=O)N[C@@H](CO)C(=O)N[C@@H](Cc2c[nH]c3ccccc23)C(=O)N1C` [Example 1143] ({CH2CO}-Y[NMeA][Dap]PAL[cisHyp]WSW[NMeNle][NMeNle]RCG-NH2; thioether N-14), the figures for the IC50 (on Human PD-L1/PD-1; in experiment [1]) were above 30.5 nM and above 74.3 nM, respectively.
For `CCCC[C@H]1C(=O)N(C)[C@@H](CCCC)C(=O)N[C@@H](CCCNC(=N)N)C(=O)N[C@H](C(=O)NCC(N)=O)CSCC(=O)N[C@@H](Cc2ccc(O)cc2)C(=O)N(C)[C@@H](C)C(=O)N[C@@H](CC(N)=O)C(=O)N2CCC[C@H]2C(=O)N[C@@H](Cc2cnc[nH]2)C(=O)N[C@@H](CC(C)C)C(=O)N2CCC[C@H]2C(=O)N[C@@H](Cc2c[nH]c3ccccc23)C(=O)N[C@@H](CO)C(=O)N[C@@H](Cc2c[nH]c3c(C)cccc23)C(=O)N1C` [Example 1144] ({CH2CO}-Y[NMeA]NPHLPWS[Trp(7-Me)][NMeNle][NMeNle]RCG-NH2; thioether N-14), the figures for the IC50 (at Human PD-L1/PD-1; in experiment [1]) were above 30.5 nM and 4.78 to 72.9 nM, respectively.
The matching figures for `CCCC[C@H]1C(=O)N(C)[C@@H](CCCC)C(=O)N[C@@H](CCCN)C(=O)N[C@H](C(=O)NCC(N)=O)CSCC(=O)N[C@@H](Cc2ccc(O)cc2)C(=O)N(C)[C@@H](C)C(=O)N[C@@H](CC(N)=O)C(=O)N2CCC[C@H]2C(=O)N[C@@H](CN)C(=O)N[C@@H](CC(C)C)C(=O)N2C[C@@H](O)C[C@H]2C(=O)N[C@@H](Cc2c[nH]c3ccccc23)C(=O)N[C@@H](CO)C(=O)N[C@@H](Cc2c[nH]c3ccccc23)C(=O)N1C` [Example 1145] ({CH2CO}-Y[NMeA]NP[Dap]L[cisHyp]WSW[NMeNle][NMeNle][Orn]CG-NH2; thioether N-14): 6.76 to 30.3 nM and 0.158 to 4.71 nM.
As for `CCCC[C@H]1C(=O)N(C)[C@@H](CCCC)C(=O)N[C@@H](CCCNC(=N)N)C(=O)N[C@H](C(=O)NCC(N)=O)CSCC(=O)N[C@@H](Cc2ccc(O)cc2)C(=O)N(C)[C@@H](C)C(=O)N[C@@H](CCCN)C(=O)N2CCC[C@H]2C(=O)N[C@@H](C)C(=O)N[C@@H](CC(C)C)C(=O)N2C[C@@H](O)C[C@H]2C(=O)N[C@@H](Cc2c[nH]c3ccccc23)C(=O)N[C@@H](CO)C(=O)N[C@@H](Cc2c[nH]c3ccccc23)C(=O)N1C` [Example 1146] ({CH2CO}-Y[NMeA][Orn]PAL[cisHyp]WSW[NMeNle][NMeNle]RCG-NH2; thioether N-14), the IC50 at Human PD-L1/PD-1 is 6.76 to 30.3 nM; in experiment [1] it was above 74.3 nM.
On to `CCCC[C@H]1C(=O)N(C)[C@@H](CCCC)C(=O)N[C@@H](CCCNC(=N)N)C(=O)N[C@H](C(=O)NCC(N)=O)CSCC(=O)N[C@@H](Cc2ccc(O)cc2)C(=O)N(C)[C@@H](C)C(=O)N[C@@H](CCCN)C(=O)N2CCC[C@H]2C(=O)N[C@@H](C)C(=O)N[C@@H](CCC(=O)O)C(=O)N2C[C@@H](O)C[C@H]2C(=O)N[C@@H](Cc2c[nH]c3ccccc23)C(=O)N[C@@H](CO)C(=O)N[C@@H](Cc2c[nH]c3ccccc23)C(=O)N1C` [Example 1147] ({CH2CO}-Y[NMeA][Orn]PAE[cisHyp]WSW[NMeNle][NMeNle]RCG-NH2; thioether N-14), for which the values for the IC50 (on Human PD-L1/PD-1; in experiment [1]) were 6.76 to 30.3 nM and 4.78 to 72.9 nM, respectively.
As for `CCCC[C@H]1C(=O)N(C)[C@@H](CCCC)C(=O)N[C@@H](CCCNC(=N)N)C(=O)N[C@H](C(=O)NCC(N)=O)CSCC(=O)N[C@@H](Cc2ccc(O)cc2)C(=O)N2CCC[C@H]2C(=O)N[C@@H](CC(N)=O)C(=O)N2CCC[C@H]2C(=O)N[C@@H](Cc2cnc[nH]2)C(=O)N[C@@H](CC(C)C)C(=O)N2C[C@@H](O)C[C@H]2C(=O)N[C@@H](Cc2c[nH]c3ccccc23)C(=O)N[C@@H](CO)C(=O)N[C@@H](Cc2c[nH]c3ccccc23)C(=O)N1C` [Example 1148] ({CH2CO}-YPNPHL[cisHyp]WSW[NMeNle][NMeNle]RCG-NH2; thioether N-14), the IC50 lay in the range of 6.76 to 30.3 nM at Human PD-L1/PD-1 and 4.78 to 72.9 nM in experiment [1].
For `CCCC[C@H]1C(=O)N(C)[C@@H](CCCC)C(=O)N[C@@H](CCCN)C(=O)N[C@H](C(=O)NCC(N)=O)CSCC(=O)N[C@@H](Cc2ccc(O)cc2)C(=O)N2CCC[C@H]2C(=O)N[C@@H](CC(=O)O)C(=O)N2CCC[C@H]2C(=O)N[C@@H](CN)C(=O)N[C@@H](CC(C)C)C(=O)N2C[C@@H](O)C[C@H]2C(=O)N[C@@H](Cc2c[nH]c3ccccc23)C(=O)N[C@@H](CO)C(=O)N[C@@H](Cc2c[nH]c3ccccc23)C(=O)N1C` [Example 1149] ({CH2CO}-YPDP[Dap]L[cisHyp]WSW[NMeNle][NMeNle][Orn]CG-NH2; thioether N-14), in that order: 6.76 to 30.3 nM and 4.78 to 72.9 nM.
As for `CCCC[C@H]1C(=O)N(C)[C@@H](CCCC)C(=O)N[C@@H](C)C(=O)N[C@H](C(=O)NCC(N)=O)CSCC(=O)N[C@@H](Cc2ccc(O)cc2)C(=O)N2CCC[C@H]2C(=O)N[C@@H](CC(=O)O)C(=O)N2CCC[C@H]2C(=O)N[C@@H](CN)C(=O)N[C@@H](CC(C)C)C(=O)N2C[C@@H](O)C[C@H]2C(=O)N[C@@H](Cc2c[nH]c3ccccc23)C(=O)N[C@@H](CCN)C(=O)N[C@@H](Cc2c[nH]c3ccccc23)C(=O)N1C` [Example 1150] ({CH2CO}-YPDP[Dap]L[cisHyp]W[Dab]W[NMeNle][NMeNle]ACG-NH2; thioether N-14), the IC50 on Human PD-L1/PD-1 fell in the range of 0.385 to 6.74 nM; in experiment [1] it was 0.158 to 4.71 nM.
Take `CCCC[C@H]1C(=O)N(C)[C@@H](CCCC)C(=O)N[C@@H](C)C(=O)N[C@H](C(=O)NCC(N)=O)CSCC(=O)N[C@@H](Cc2ccc(O)cc2)C(=O)N2CCC[C@H]2C(=O)N[C@@H](CC(=O)O)C(=O)N2CCC[C@H]2C(=O)N[C@@H](CN)C(=O)N[C@@H](CC(C)C)C(=O)N2C[C@H](O)C[C@H]2C(=O)N[C@@H](Cc2c[nH]c3ccccc23)C(=O)N[C@@H](CO)C(=O)N[C@@H](Cc2c[nH]c3ccccc23)C(=O)N1C` [Example 1152] ({CH2CO}-YPDP[Dap]L[Hyp]WSW[NMeNle][NMeNle]ACG-NH2; thioether N-14): the results for the IC50 (at Human PD-L1/PD-1; in experiment [1]) were 6.76 to 30.3 nM and 4.78 to 72.9 nM, respectively.
